According to US7820833B2, “Dithio compounds” (Marquette University, priority 2005, dated 2010):

Experiment: FRET-based detection of thiols with coumarin-DAP-FITC
Conditions: 5 μM probe, Hepes pH 7.0; excitation 300 to 330 nm; no DTT
Experimental: FIG. 18. FRET-based detection of thiols: (a) R^1—S—S—R^2 probe with FRET capability (coumarin-DAP-FITC); (b) Fluorescence emission of coumarin-DAP-FITC at different excitation wavelengths; (c) Fluorescence emission of coumarin DAP-FITC after treatment with 1 mM DTT reductant (5 min) at different excitation wavelengths.
Hepes (pH 7.0) buffer was used in this study (FIG. 18) and fluorescence readings were made on a BMG Polarstar Galaxy fluorescence plate reader and/or on a Jasco FP-6500 spectrofluorometer. […] The probe (5 μM) was transferred to a 4 mL fluorescence cell and a three dimensional fluorescence spectra was recorded with excitation wavelength from 300 nm to 400 nm and emission wavelength from 400 nm to 600 nm. The coumarin chromophone has maximum excitation wavelength in the range of 310 to 325 nm and emits in the range of 400 nm to 425 nm. […] Analogues of this coumarin-DAP-FITC FRET pair can be used to tune excitation wavelengths in the range of 280 to 400 nm by placing different substitutions on the coumarin core. This includes using commercially available coumarin compounds and also coumarin compounds synthesized with functional groups like NO2, CN, NH2, COOH, CHO, alkyl, benzyl, pyridyl, naphthyl, indoles, etc at any of the synthetically feasible positions on benzyl ring of coumarin or lactone ring of coumarin. […]

Cc1cc(=O)oc2cc(SSc3ccc(C(=S)Nc4ccc(C(=O)O)c(-c5c6ccc(=O)cc-6oc6cc(O)ccc56)c4)cc3)ccc12 [coumarin-DAP-FITC, 2-(6-Hydroxy-3-oxo-3H-xanthen-9-yl)-4-[4-(4-methyl-2-oxo-2H-chromen-7-yldisulfanyl)-thiobenzoylamino]-benzoic acid]
fluorescence emission of intact probe: emission is only from FITC at 520 nm
